From the supplement of paper PMC11451515

Test system: NOMO1
Experiment: cell viability relative to DMSO control; higher = less cytotoxic
Conditions: 48 h
Outline: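 Viability, reported as a per-plate percentage of DMSO wells with cell-free wells as background, came from CellTiter-Glo One luminescence. Reading took place after 48 h at 37°C. Before that, NOMO1 or SEM (500 cells/well) or P12-Ichikawa (1000 cells/well) leukemia cells, adapted for at least four passages in each medium, were seeded in 1536-well plates (5 μl) and pin-dosed with library compounds in DMSO, 47 μM to 0.79 nM over 11 threefold points.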

[1] = HPLM + 10% dialyzed FBS, 0.000781 µM
[2] = HPLM + 10% dialyzed FBS, 0.00234 µM
[3] = HPLM + 10% dialyzed FBS, 0.00702 µM
[4] = HPLM + 10% dialyzed FBS, 0.0211 µM
[5] = HPLM + 10% dialyzed FBS, 0.0632 µM
[6] = HPLM + 10% dialyzed FBS, 0.19 µM
[7] = HPLM + 10% dialyzed FBS, 0.569 µM
[8] = HPLM + 10% dialyzed FBS, 1.71 µM
[9] = HPLM + 10% dialyzed FBS, 5.12 µM
[10] = HPLM + 10% dialyzed FBS, 15.4 µM
[11] = HPLM + 10% dialyzed FBS, 46.1 µM
[12] = RPMI 5 mM glucose + 10% FBS, 0.000781 µM
[13] = RPMI 5 mM glucose + 10% FBS, 0.00234 µM
[14] = RPMI 5 mM glucose + 10% FBS, 0.00702 µM
[15] = RPMI 5 mM glucose + 10% FBS, 0.0211 µM
[16] = RPMI 5 mM glucose + 10% FBS, 0.0632 µM
[17] = RPMI 5 mM glucose + 10% FBS, 0.19 µM
[18] = RPMI 5 mM glucose + 10% FBS, 0.569 µM
[19] = RPMI 5 mM glucose + 10% FBS, 1.71 µM
[20] = RPMI 5 mM glucose + 10% FBS, 5.12 µM
[21] = RPMI 5 mM glucose + 10% FBS, 15.4 µM
[22] = RPMI 5 mM glucose + 10% FBS, 46.1 µM
[23] = RPMI 5 mM glucose + 10% dialyzed FBS, 0.000781 µM
[24] = RPMI 5 mM glucose + 10% dialyzed FBS, 0.00234 µM
[25] = RPMI 5 mM glucose + 10% dialyzed FBS, 0.00702 µM
[26] = RPMI 5 mM glucose + 10% dialyzed FBS, 0.0211 µM
[27] = RPMI 5 mM glucose + 10% dialyzed FBS, 0.0632 µM
[28] = RPMI 5 mM glucose + 10% dialyzed FBS, 0.19 µM
[29] = RPMI 5 mM glucose + 10% dialyzed FBS, 0.569 µM
[30] = RPMI 5 mM glucose + 10% dialyzed FBS, 1.71 µM
[31] = RPMI 5 mM glucose + 10% dialyzed FBS, 5.12 µM
[32] = RPMI 5 mM glucose + 10% dialyzed FBS, 15.4 µM
[33] = RPMI 5 mM glucose + 10% dialyzed FBS, 46.1 µM

| Compound | cell viability [1] [%] | cell viability [2] [%] | cell viability [3] [%] | cell viability [4] [%] | cell viability [5] [%] | cell viability [6] [%] | cell viability [7] [%] | cell viability [8] [%] | cell viability [9] [%] | cell viability [10] [%] | cell viability [11] [%] | cell viability [12] [%] | cell viability [13] [%] | cell viability [14] [%] | cell viability [15] [%] | cell viability [16] [%] | cell viability [17] [%] | cell viability [18] [%] | cell viability [19] [%] | cell viability [20] [%] | cell viability [21] [%] | cell viability [22] [%] | cell viability [23] [%] | cell viability [24] [%] | cell viability [25] [%] | cell viability [26] [%] | cell viability [27] [%] | cell viability [28] [%] | cell viability [29] [%] | cell viability [30] [%] | cell viability [31] [%] | cell viability [32] [%] | cell viability [33] [%] |
| --- | --- | --- | --- | --- | --- | --- | --- | --- | --- | --- | --- | --- | --- | --- | --- | --- | --- | --- | --- | --- | --- | --- | --- | --- | --- | --- | --- | --- | --- | --- | --- | --- | --- |
| N[C@@H]1CONC1=O | 90.7 | 110 | 112 | 101 | 99.4 | 107 | 104 | 110 | 107 | 94.4 | 105 | 84.4 | 88.7 | 95.7 | 91.6 | 94.4 | 90.6 | 94.2 | 99.4 | 94.6 | 90.1 | 88.7 | 87.4 | 98.8 | 112 | 96 | 99.3 | 101 | 107 | 88 | 96.2 | 89.9 | 93.7 |
| C[C@@H]1CCO[C@H]2CN\3/C=C(/C(=O)NCC4=C(F)C=C(F)C=C4)C(=O)\C(=C3C(=O)N12)O | 107 | 103 | 117 | 116 | 109 | 109 | 101 | 90.6 | 105 | 102 | 108 | 87.6 | 91.1 | 110 | 88.7 | 92.6 | 88.5 | 84.5 | 102 | 86.3 | 95.4 | 93.9 | 90.3 | 82 | 106 | 96.9 | 99.6 | 85.8 | 103 | 98.4 | 95.5 | 87.1 | 96.2 |
| CC(N[C@H]1CCCC[C@@H]1NC(=O)c1ccc(Cl)cc1)c1cccc2ccccc12 (stereo not given in full) | 117 | 131 | 112 | 127 | 113 | 110 | 139 | 86.3 | 83 | 28 | 29.5 | 100 | 107 | 120 | 114 | 110 | 113 | 114 | 102 | 105 | 19.9 | 18.2 | 102 | 108 | 113 | 112 | 111 | 117 | 103 | 103 | 107 | 25.4 | 24.2 |
| OCC(O)C(O)C(O)CO (stereo not given) | 98.8 | 88.8 | 87.7 | 104 | 81.7 | 92.4 | 99 | 86.3 | 96.7 | 70.2 | 80 | 84 | 99.3 | 92.6 | 84.4 | 89.9 | 87.7 | 84.9 | 85.8 | 82 | 82.1 | 80 | 77.9 | 86.8 | 112 | 96.2 | 106 | 106 | 103 | 84.9 | 89 | 72.5 | 94.6 |
| CNCC[C@H](Oc1cccc2ccccc12)c1cccs1 | 117 | 119 | 145 | 116 | 134 | 117 | 130 | 123 | 90.8 | 41.5 | 26.5 | 108 | 122 | 122 | 116 | 120 | 112 | 124 | 110 | 116 | 44.5 | 26.3 | 105 | 127 | 116 | 119 | 137 | 113 | 112 | 114 | 121 | 46.7 | 27.4 |
| O=C(O)CCNC(=O)c1ccc(/N=N/c2ccc(O)c(C(=O)O)c2)cc1 | – | – | – | – | – | – | – | – | – | – | – | 106 | 125 | 113 | 122 | 110 | 110 | 117 | 106 | 117 | 116 | 76.7 | – | – | – | – | – | – | – | – | – | – | – |
| CCCCOc1c(C(=O)c2c(F)cc(C)cc2F)cnc2[nH]ncc12 | 95.9 | 113 | 107 | 103 | 103 | 109 | 103 | 119 | 89.1 | 96.2 | 68.9 | 89.4 | 98.2 | 82.7 | 96.7 | 98.7 | 94 | 95.6 | 93.6 | 98.9 | 90.3 | 79.1 | 97.6 | 96.3 | 100 | 92.6 | 92.7 | 85.5 | 83.1 | 86.7 | 70.6 | 88.4 | 84.3 |
| COC(=O)C\1=C(C)\N\C(=C(/C1C2=CC=CC3=NON=C23)C(=O)OC(C)C)C (stereo not given) | 115 | 116 | 104 | 111 | 111 | 108 | 96.3 | 89.8 | 88.8 | 96.3 | 85.1 | 95.4 | 94.6 | 91.3 | 99.3 | 103 | 89.4 | 94.5 | 85.2 | 81.4 | 86.6 | 94.7 | 105 | 101 | 100 | 108 | 88.7 | 92.3 | 87.8 | 102 | 92.8 | 93.4 | 106 |
| CN(C)CC(C)(C)CNc1nn2c(-c3ccccc3)nnc2cc1C1CCC1 | 113 | 110 | 117 | 126 | 113 | 109 | 116 | 110 | 91.9 | 39.5 | 22.4 | 107 | 98.4 | 103 | 123 | 103 | 110 | 111 | 122 | 116 | 87 | 15.6 | 91.6 | 110 | 103 | 105 | 102 | 95.5 | 116 | 109 | 100 | 103 | 27.7 |
